Test results reported in US20260224758A1, “ALPHA-SYNUCLEIN BINDERS AND METHODS OF USE” (Merck Sharp & Dohme LLC, priority 2023, published 2026).

target: T1, triton-extracted alpha-synuclein from PD Tissue (Homo sapiens, UniProt P37840); assay: Alpha-synuclein tissue homogenate binding assay (Assay 1), displacement of [^3H]-1000; details: Aβ Tissue Ki / α-synuclein Tissue Ki
T1 construct: tissue Analytic Biological Services Inc; host or cells: human PD temporal cortex grey matter, Triton X-100 insoluble pellet
Description: Frozen human brain tissues from PD patients were purchased from Analytic Biological Services Inc. The samples were post-mortem tissues from donors with clinical diagnosis of late stage of PD. Alpha-synuclein, tau and amyloid burden was determined through a combination of immunohistochemistry on frozen thin coronal sections, as well as alpha Lisa-based quantification of protein levels in a detergent insoluble protein fraction. A tissue sample of temporal cortex was identified from one donor as having moderate to high alpha-synuclein burden, low amyloid and minimal to no tau pathology. The detergent insoluble fraction of temporal cortex from this patient was used to support homogenate binding studies. Grey matter was dissected out of the temporal cortex tissue with a dissecting blade and minced with fine dissecting scissors. […] Homogenates were centrifuged at 100,000×g for 45 minutes. The pellet was resuspended in TBS-TX buffer, using a Polytron at highest setting for 30 seconds at 4° C. Homogenates were centrifuged at 100,000×g for 45 minutes and the pellet was resuspended in TBS-TX buffer. A BCA protein assay was performed on the final homogenate to determine the protein concentration. […] For displacement a-synuclein binding assay, compounds and control were solvated in dimethyl sulfoxide (DMSO) and transferred using focused acoustic energy by an Echo 655 liquid handling instrument (Beckman Coulter, Indianapolis, IN) into designated wells of uniquely bar coded 96-well v-bottom low binding polypropylene microplates (Thermo Scientific, 249946). Compound dose response curves were prepared in a 10-point, 3-fold fashion within columns 2-11 of the microplate from high to low compound concentrations. […] Liquid-handling steps for dispensing insoluble fractions of PD brain homogenates and radioligand were performed using a Bravo automated liquid handling platform equipped with a 96LT disposable tip head (Agilent Technologies, Santa Clara. CA). […] The incubation was terminated by rapid filtration through UniFilter-96 GF/C microplates (pre-treated for 30 minutes with 0.2% Polyethylenimine at 4° C.) by using a FilterMate Harvester (PerkinElmer). […] The bottom of each UniFilter-96 GF/C microplate was adhesively sealed (PerkinElmer 6005199) prior to the addition of 50 μL MicroScint-20 liquid scintillation cocktail (PerkinElmer 6013621) to each well. A clear adhesive seal (TopSeal-A PLUS, PerkinElmer 6050185) was then applied to the top of each microplate and counted 1 minute/well on MicroBeta^2 system (PerkinElmer.

Selectivity ratio (Assay 2/Assay 1) | Compound
2000 | COC[C@H]1CN(c2ncc(/C=C/c3ccc(-n4ccnc4)nc3)cn2)CCN1c1ncc(OCCF)cn1 [Example 35, (R,E)-5-(2-(6-(1H-imidazol-1-yl)pyridin-3-yl)vinyl)-2-(4-(5-(2-fluoroethoxy)pyrimidin-2-yl)-3-(methoxymethyl)piperazin-1-yl)pyrimidine]
8000 | FCCOC[C@H]1CN(c2ncc(/C=C/c3ccc(-n4ccnc4)nc3)cn2)CCN1c1ncccn1 [Example 3, (R,E)-5-(2-(6-(1H-imidazol-1-yl)pyridin-3-yl)vinyl)-2-(3-((2-fluoroethoxy)methyl)-4-(pyrimidin-2-yl)piperazin-1-yl)pyrimidine]
3077 | COC[C@H]1CN(c2ncccn2)CCN1c1ncc(/C=C/c2ccc(-n3ccnc3)nc2)cn1 [Example 28, (R,E)-5-(2-(6-(1H-imidazol-1-yl)pyridin-3-yl)vinyl)-2-(2-(methoxymethyl)-4-(pyrimidin-2-yl)piperazin-1-yl)pyrimidine]
3636 | COC[C@H]1CN(c2ncc(C#Cc3ccc(-n4ccnc4)nc3)cn2)CCN1c1cc(F)ncn1 [Example 12, (R)-5-((6-(1H-imidazol-1-yl)pyridin-3-yl)ethynyl)-2-(4-(6-fluoropyrimidin-4-yl)-3-(methoxymethyl)piperazin-1-yl)pyrimidine]

same assay, conditions: insoluble fraction of PD brain homogenate, [^3H]-1000 3.0 nM, Kd 0.90 nM; read-out: α-synuclein Tissue Ki (Assay 1)

Compound | Ki [nM]
FCCOC[C@H]1CN(c2ncc(C#Cc3cnc(-c4cnco4)nc3)cn2)CCN1c1ncncn1 [Example 55, (R)-5-(5-((2-(3-((2-fluoroethoxy)methyl)-4-(1,3,5-triazin-2-yl)piperazin-1-yl)pyrimidin-5-yl)ethynyl)pyrimidin-2-yl)oxazole] | 6.67
COC[C@H]1CN(c2ncc(C#Cc3cnc(-c4cnn(CCF)c4)nc3)cn2)CCN1c1ccc(F)cn1 [Example 85, (R)-2-(1-(2-fluoroethyl)-1H-pyrazol-4-yl)-5-((2-(4-(5-fluoropyridin-2-yl)-3-(methoxymethyl)piperazin-1-yl)pyrimidin-5-yl)ethynyl)pyrimidine] | 1.05
COC[C@H]1CN(c2ncc(C#Cc3ccc(-c4cc(F)ncn4)nc3)cn2)CCN1c1ncc(C#N)cn1 [Example 81, (R)-2-(4-(5-((6-(6-fluoropyrimidin-4-yl)pyridin-3-yl)ethynyl)pyrimidin-2-yl)-2-(methoxymethyl)piperazin-1-yl)pyrimidine-5-carbonitrile] | 1.18
COC[C@H]1CN(c2ncncn2)CCN1c1ncc(C#Cc2cnc(-c3cnn(CCF)c3)nc2)cn1 [Example 84, (R)-2-(4-(5-((2-(1-(2-fluoroethyl)-1H-pyrazol-4-yl)pyrimidin-5-yl)ethynyl)pyrimidin-2-yl)-3-(methoxymethyl)piperazin-1-yl)-1,3,5-triazine] | 2.29
Cn1cc(-c2ncc(C#Cc3cnc(N4CCN(c5ccncn5)[C@@H](COCCF)C4)nc3)cn2)cn1 [Example 53, (R)-2-(3-((2-fluoroethoxy)methyl)-4-(pyrimidin-4-yl)piperazin-1-yl)-5-((2-(1-methyl-1H-pyrazol-4-yl)pyrimidin-5-yl)ethynyl)pyrimidine] | 0.32
COC[C@H]1CN(c2ncc(C#Cc3ccc(-c4cnn(CCF)c4)nc3)cn2)CCN1c1ncc(F)cn1 [Example 90, (R)-5-fluoro-2-(4-(5-((6-(1-(2-fluoroethyl)-1H-pyrazol-4-yl)pyridin-3-yl)ethynyl)pyrimidin-2-yl)-2-(methoxymethyl)piperazin-1-yl)pyrimidine] | 1.82
COC[C@H]1CN(c2ncc(C#Cc3cnc(-c4cnn(CCF)c4)nc3)cn2)CCN1c1ccncn1 [Example 54, (R)-2-(1-(2-fluoroethyl)-1H-pyrazol-4-yl)-5-((2-(3-(methoxymethyl)-4-(pyrimidin-4-yl)piperazin-1-yl)pyrimidin-5-yl)ethynyl)pyrimidine] | 0.91
COC[C@@H]1CN(c2ncncn2)CCN1c1ncc(C#Cc2cnc(-c3cnn(CCF)c3)nc2)cn1 [Example 87, (S)-2-(4-(5-((2-(1-(2-fluoroethyl)-1H-pyrazol-4-yl)pyrimidin-5-yl)ethynyl)pyrimidin-2-yl)-3-(methoxymethyl)piperazin-1-yl)-1,3,5-triazine] | 0.89
COC[C@H]1CN(c2ncc(C#Cc3cnc(-c4cnn(C)c4)nc3)cn2)CCN1c1cc(F)ncn1 [Example 94, (R)-2-(4-(6-fluoropyrimidin-4-yl)-3-(methoxymethyl)piperazin-1-yl)-5-((2-(1-methyl-1H-pyrazol-4-yl)pyrimidin-5-yl)ethynyl)pyrimidine] | 0.76
FCCOCCOC[C@H]1CN(c2ncc(C#Cc3cnc(-c4cncnc4)nc3)cn2)CCN1c1ncncn1 [Example 79, (R)-5-((2-(3-((2-(2-fluoroethoxy)ethoxy)methyl)-4-(1,3,5-triazin-2-yl)piperazin-1-yl)pyrimidin-5-yl)ethynyl)-2,5′-bipyrimidine] | 5.42
COC[C@H]1CN(c2ncc(C#Cc3cnc(-c4cnn(CCF)c4)nc3)cn2)CCN1c1ncc(F)cn1 [Example 88, (R)-5-fluoro-2-(4-(5-((2-(1-(2-fluoroethyl)-1H-pyrazol-4-yl)pyrimidin-5-yl)ethynyl)pyrimidin-2-yl)-2-(methoxymethyl)piperazin-1-yl)pyrimidine] | 0.99

Second part, the compound after the results:

Ki [nM] | Compound
2.39 | Cn1cc(-c2ncc(C#Cc3cnc(N4CCN(c5ncccn5)[C@@H](COCCOCCOCCOCCF)C4)nc3)cn2)cn1 [Example 83, (R)-2-(3-(13-fluoro-2,5,8,11-tetraoxatridecyl)-4-(pyrimidin-2-yl)piperazin-1-yl)-5-((2-(1-methyl-1H-pyrazol-4-yl)pyrimidin-5-yl)ethynyl)pyrimidine]
2 | COC[C@H]1CN(c2ncc(/C=C/c3ccc(-n4ccnc4)nc3)cn2)CCN1c1ncc(OCCF)cn1 [Example 35, (R,E)-5-(2-(6-(1H-imidazol-1-yl)pyridin-3-yl)vinyl)-2-(4-(5-(2-fluoroethoxy)pyrimidin-2-yl)-3-(methoxymethyl)piperazin-1-yl)pyrimidine]
1.6 | OC[C@H]1CN(c2ncc(/C=C/c3ccc(-n4ccnc4)nc3)cn2)CCN1c1ncccn1 [Example 1, (R,E)-(4-(5-(2-(6-(1H-imidazol-1-yl)pyridin-3-yl)vinyl)pyrimidin-2-yl)-1-(pyrimidin-2-yl)piperazin-2-yl)methanol]
0.5 | FCCOC[C@H]1CN(c2ncc(/C=C/c3ccc(-n4ccnc4)nc3)cn2)CCN1c1ncccn1 [Example 3, (R,E)-5-(2-(6-(1H-imidazol-1-yl)pyridin-3-yl)vinyl)-2-(3-((2-fluoroethoxy)methyl)-4-(pyrimidin-2-yl)piperazin-1-yl)pyrimidine]
0.897 | FCCOCCOC[C@H]1CN(c2ncc(C#Cc3ccc(-c4cnco4)nc3)cn2)CCN1c1ncncn1 [Example 48, (R)-5-(5-((2-(3-((2-(2-fluoroethoxy)ethoxy)methyl)-4-(1,3,5-triazin-2-yl)piperazin-1-yl)pyrimidin-5-yl)ethynyl)pyridin-2-yl)oxazole]
1.67 | COC[C@H]1CN(c2ncc(C#Cc3ccc(-n4cnnc4)nc3)c(F)n2)CCN1c1ccncn1 [Example 58, (R)-5-((6-(4H-1,2,4-triazol-4-yl)pyridin-3-yl)ethynyl)-4-fluoro-2-(3-(methoxymethyl)-4-(pyrimidin-4-yl)piperazin-1-yl)pyrimidine]
2.91 | Cn1ccc(-c2ncc(C#Cc3cnc(N4CCN(c5ncncn5)[C@@H](COCCF)C4)nc3)cn2)n1 [Example 49, (R)-2-(2-((2-fluoroethoxy)methyl)-4-(5-((2-(1-methyl-1H-pyrazol-3-yl)pyrimidin-5-yl)ethynyl)pyrimidin-2-yl)piperazin-1-yl)-1,3,5-triazine]
3.06 | FCCOC[C@H]1CN(c2ncc(C#Cc3cnc(-c4cnco4)nc3)cn2)CCN1c1ncccn1 [Example 93, (R)-5-(5-((2-(3-((2-fluoroethoxy)methyl)-4-(pyrimidin-2-yl)piperazin-1-yl)pyrimidin-5-yl)ethynyl)pyrimidin-2-yl)oxazole]
1.3 | COC[C@H]1CN(c2ncccn2)CCN1c1ncc(/C=C/c2ccc(-n3ccnc3)nc2)cn1 [Example 28, (R,E)-5-(2-(6-(1H-imidazol-1-yl)pyridin-3-yl)vinyl)-2-(2-(methoxymethyl)-4-(pyrimidin-2-yl)piperazin-1-yl)pyrimidine]
2.59 | COC[C@H]1CN(c2ncc(C#Cc3cnc(-n4cnnc4)nc3)cn2)CCN1c1ccc(F)cn1 [Example 89, (R)-5-((2-(4H-1,2,4-triazol-4-yl)pyrimidin-5-yl)ethynyl)-2-(4-(5-fluoropyridin-2-yl)-3-(methoxymethyl)piperazin-1-yl)pyrimidine]

same assay, conditions: radioligand [^3H]-1000, PD brain insoluble fraction

Compound | Kd [nM]
[^3H]-(S)-6-(1H-imidazol-1-yl)-N-(2-(2-methyl-4-(pyridin-2-yl)piperazin-1-yl)pyrimidin-5-yl)nicotinamide [[^3H]-1000, reference compound] | 0.9

same assay, conditions: read-out: α-synuclein Tissue Ki (Assay 1)

Ki [nM] | Compound
1.22 | Cn1cc(-c2ncc(/C=C/c3cnc(N4CCN(c5ncncn5)[C@@H](COCCF)C4)nc3)cn2)cn1 [Example 43, (R,E)-2-(2-((2-fluoroethoxy)methyl)-4-(5-(2-(2-(1-methyl-1H-pyrazol-4-yl)pyrimidin-5-yl)vinyl)pyrimidin-2-yl)piperazin-1-yl)-1,3,5-triazine]
1.3 | Cn1cc(-c2ncc(C#Cc3cnc(N4CCN(c5ncncn5)[C@@H](COCF)C4)nc3)cn2)cn1 [Example 95, (R)-2-(2-((fluoromethoxy)methyl)-4-(5-((2-(1-methyl-1H-pyrazol-4-yl)pyrimidin-5-yl)ethynyl)pyrimidin-2-yl)piperazin-1-yl)-1,3,5-triazine]
1.1 | COC[C@H]1CN(c2ncc(C#Cc3ccc(-n4ccnc4)nc3)cn2)CCN1c1cc(F)ncn1 [Example 12, (R)-5-((6-(1H-imidazol-1-yl)pyridin-3-yl)ethynyl)-2-(4-(6-fluoropyrimidin-4-yl)-3-(methoxymethyl)piperazin-1-yl)pyrimidine]
